In ChEMBL document CHEMBL3507680, “University of Dundee, Gates Library screen for HepG2 cell viability”:

Experiment: Human HepG2 cell viability assay in 384 well format
Format: toxicity, cell-based
Design: dose 125 nL, time 70.5 hour; cytotoxicity at 70.5 h: concentration not given beside the values
Settings: HepG2 cells, read-out: Inhibition
Compound O=C(CN1CCc2ccccc2C1)NCc1ccco1 has a cytotoxicity at 70.5 h of 3.48%.
Work on CC(c1cccnc1)N(C)Cc1ccccn1 (configuration not stated) yielded a cytotoxicity at 70.5 h of -7.62%.
With O=C(C(CNCc1cccnc1)c1ccccc1)N1CCOCC1 (configuration not stated) the cytotoxicity at 70.5 h was -8.37%.
Compound CCC(C)(CCO)NC(=O)c1ccon1 (configuration not stated) has a cytotoxicity at 70.5 h of 24.8%.
For Cc1cc(NC(=O)c2ccc(F)cc2F)n(C)n1, the cytotoxicity at 70.5 h was -10.6%.
Cc1cc(NC(=O)c2ccc(F)cc2Cl)n(C)n1 gave a cytotoxicity at 70.5 h of 6.57%.
Work on COc1cc(Cl)c(NCc2c(C)noc2C)cc1OC yielded a cytotoxicity at 70.5 h of -7.06%.
Compound COc1cc(NCc2c(C)noc2C)c(C(=O)N(C)C)cc1OC has a cytotoxicity at 70.5 h of -8.14%.
Cc1cc(NC(=O)COC(=O)c2ccc(F)cc2Br)n(C)n1 gave a cytotoxicity at 70.5 h of -12.3%.
Work on Cc1cc(NC(=O)c2ccc(F)cc2Br)n(C)n1 yielded a cytotoxicity at 70.5 h of -4.35%.
For O=c1[nH]ncc(NCCOc2cccc(Br)c2)c1Cl, the cytotoxicity at 70.5 h was -5.68%.
Compound CN(CC(=O)Nc1cc(C(C)(C)C)n[nH]1)S(C)(=O)=O has a cytotoxicity at 70.5 h of 12%.
With Cc1nn(CC(O)CN2CCC(C)CC2)c(=O)c(C#N)c1C (configuration not stated) the cytotoxicity at 70.5 h was -17%.
In the case of CCCn1nnnc1CN1Cc2ccccc2CC1c1nnc(C)o1 (configuration not stated), the cytotoxicity at 70.5 h is reported as -8.77%.
Work on Cn1c(C(=O)N(CC(N)=O)C2CCCC2)cc(Cl)c1Cl yielded a cytotoxicity at 70.5 h of -10.6%.
Compound C=C(C)CN1CCCC(CNS(C)(=O)=O)C1 (configuration not stated) has a cytotoxicity at 70.5 h of -4.35%.
Compound Cc1ccc(-c2cc(CN3CCc4cncnc4C3)on2)cc1 has a cytotoxicity at 70.5 h of -10.9%.
In the case of CCN(C(=O)COc1nc(Cc2ccc(F)cc2)no1)C1CC1, the cytotoxicity at 70.5 h is reported as -5.41%.
CN(CC(F)(F)F)C(=O)COc1nc(Cc2ccc(F)cc2)no1 gave a cytotoxicity at 70.5 h of -7.01%.
Cc1cnn(CCNCC(O)c2ccc(S(C)(=O)=O)cc2)c1 (configuration not stated) showed a cytotoxicity at 70.5 h of -11.8%.
With Cc1cccc(N2N=C(C(=O)NC(C)CCc3ccco3)CCC2=O)c1 (configuration not stated) the cytotoxicity at 70.5 h was 28.5%.
Work on CC(C)CCN(C(=O)c1cccc(NC(N)=O)c1)C1CC1 yielded a cytotoxicity at 70.5 h of -17.2%.
CC(C)COC1CCN(C(=O)c2ccc(C(F)(F)F)[nH]c2=O)CC1 showed a cytotoxicity at 70.5 h of -4.17%.
c1cc(-c2nnc(C3(c4ccc5c(c4)OCO5)CCOCC3)o2)ccn1 gave a cytotoxicity at 70.5 h of -11.2%.
With NC(=O)Nc1cccc(C(=O)N(Cc2ccncc2)C2CC2)c1 the cytotoxicity at 70.5 h was -10.2%.
Compound O=C(Nc1cc(-c2ccccc2)on1)N1CCN(CCO)CC1 has a cytotoxicity at 70.5 h of -6.53%.
CC(SCc1cc(Br)cc2cccnc12)C(N)=O (configuration not stated) gave a cytotoxicity at 70.5 h of -16%.
For CC(SCc1ccc(Br)c2cccnc12)C(N)=O (configuration not stated), the cytotoxicity at 70.5 h was 18.2%.
In the case of COCCn1ccc2ccc(NC(=O)NCc3noc(C)n3)cc21, the cytotoxicity at 70.5 h is reported as 2.1%.
CC(C)(C#N)CCCS(=O)(=O)c1nccn1-c1cccc(F)c1 showed a cytotoxicity at 70.5 h of -10.9%.
CC(SCCS(C)(=O)=O)c1nc(Cc2ccc(F)cc2)no1 (configuration not stated) gave a cytotoxicity at 70.5 h of -0.925%.
With CCC(=O)N(CC)CCc1nccs1 the cytotoxicity at 70.5 h was -9.4%.
For Cc1ccc(C(=O)N(C)C)cc1NC(=O)COCC1CC1, the cytotoxicity at 70.5 h was -6.84%.
CCN(CCc1nccs1)C(=O)c1sccc1C showed a cytotoxicity at 70.5 h of -9.19%.
COc1ccc(C(=O)NCCCNc2ncccn2)cc1F showed a cytotoxicity at 70.5 h of 3.94%.
Compound OC(COCc1ccccc1)CSc1nnc2ccccn12 (configuration not stated) has a cytotoxicity at 70.5 h of -5.06%.
Compound CCCc1noc(CCC(=O)Nc2cc(C(F)(F)F)c[nH]c2=O)n1 has a cytotoxicity at 70.5 h of -6.41%.
O=C(c1nc(=O)[nH][nH]1)N1CCCN(CC2CCCCC2)CC1 gave a cytotoxicity at 70.5 h of -7.64%.
For CNC(=O)c1ccc(NC(=O)NC(C)c2cc(C)oc2C)cc1 (configuration not stated), the cytotoxicity at 70.5 h was -8.2%.
CN(C)CCN(Cc1ccccc1)C(=O)C1=NNC(=O)CC1 showed a cytotoxicity at 70.5 h of -6.1%.
For CN(Cc1cccs1)C(=O)c1ccc(=O)n(C)c1, the cytotoxicity at 70.5 h was -5.37%.
Compound CCOc1ccc(C(=O)NCCCNc2ncccn2)cc1 has a cytotoxicity at 70.5 h of 17.7%.
Compound NC(=O)C1=NC2=NS(=O)(=O)c3ccccc3N2N1Cc1ccccc1Cl has a cytotoxicity at 70.5 h of -7.31%.
Compound Cn1c(N)nnc1SCc1cc(Br)ccc1Cl has a cytotoxicity at 70.5 h of -10.9%.
With Cn1cc(S(=O)(=O)Nc2c(F)cccc2N2CCCC2)cn1 the cytotoxicity at 70.5 h was -4.97%.
COCCNc1ccccc1CNC(=O)C1CCCOC1 (configuration not stated) showed a cytotoxicity at 70.5 h of -2.32%.
Compound CCOc1ccc(NC2CCN(C3CC3)C2=O)cn1 (configuration not stated) has a cytotoxicity at 70.5 h of -1.16%.
Work on Cc1cc(S(=O)(=O)Nc2onc(C)c2C)sc1C yielded a cytotoxicity at 70.5 h of -5.02%.
Compound CC(C)(C)Cc1nnc(NCc2cccc(C#N)c2)o1 has a cytotoxicity at 70.5 h of -1.69%.
CN(Cc1ncnn1C)C(=O)Nc1ccc(OC(F)F)cc1 gave a cytotoxicity at 70.5 h of -8.26%.
Cc1ncc2c(n1)CN(CCOCC(F)(F)F)CC2 showed a cytotoxicity at 70.5 h of -4.14%.
Compound FC(F)(F)COCCN1CCc2cncnc2C1 has a cytotoxicity at 70.5 h of -2.38%.
Compound CCc1nc(C2CCCN2C(=O)c2ccc(=O)n(CC)n2)no1 (configuration not stated) has a cytotoxicity at 70.5 h of 4.08%.
Work on CCn1nc(C(=O)N2CCCC2c2noc(C)n2)ccc1=O (configuration not stated) yielded a cytotoxicity at 70.5 h of -3.84%.
For CCN(CC)c1ccc(NC(=O)NCC2CCOC2)cn1 (configuration not stated), the cytotoxicity at 70.5 h was -12.2%.
For CC(C)(CNc1cn[nH]c(=O)c1Cl)c1ccc2c(c1)OCCO2, the cytotoxicity at 70.5 h was -13.9%.
For Cc1noc(C2CCN(C(C)c3nc(C4CC4)no3)CC2)n1 (configuration not stated), the cytotoxicity at 70.5 h was -16.9%.
In the case of CCc1ccc(CCC(=O)NCc2nnc[nH]2)cc1, the cytotoxicity at 70.5 h is reported as -19.3%.
Compound CC(c1nc(C(C)(C)C)no1)N1CCC(N2CCCC2)CC1 (configuration not stated) has a cytotoxicity at 70.5 h of 4.89%.
For O=C(C1CSc2ccccc2O1)N1CCN(CCO)CC1 (configuration not stated), the cytotoxicity at 70.5 h was -14.3%.
Compound CNC(=O)CN(C)c1cncc(OCC(C)C)n1 has a cytotoxicity at 70.5 h of -5.85%.
Compound CCC(NC(=O)c1cccc2[nH]ccc12)C(=O)N1CCOCC1 (configuration not stated) has a cytotoxicity at 70.5 h of -6.49%.
O=C(CCc1ccc(Br)cc1)NCc1nnc[nH]1 showed a cytotoxicity at 70.5 h of -9.74%.
In the case of CCn1c(CN(C)C(C)CSC)nc2c(F)cccc21 (configuration not stated), the cytotoxicity at 70.5 h is reported as -3.45%.
Work on CN(C)Cc1nc(C(C)(C)NC(=O)c2ccnn2C)no1 yielded a cytotoxicity at 70.5 h of 8.69%.
For Cc1ccc(C)c(OCC(O)CN(C)CC(=O)Nc2cc(C)on2)c1 (configuration not stated), the cytotoxicity at 70.5 h was 3.48%.
For Cc1ccc(OCCC(=O)N(C)CC(=O)Nc2cc(C)on2)c(C)c1, the cytotoxicity at 70.5 h was -4.37%.
Compound COc1ccc2nc(C)c(C(=O)NCCN3CCS(=O)(=O)CC3)cc2c1 has a cytotoxicity at 70.5 h of -1.47%.
Compound Cn1nccc1C(=O)NC(C)(C)c1noc(C(C)(C)C)n1 has a cytotoxicity at 70.5 h of -16.4%.
Work on CCN1CCN(CCCNC(=O)c2cc3ccc(C)cc3nc2C)CC1 yielded a cytotoxicity at 70.5 h of -2.81%.
CNC(=O)C(CCSC)NC(=O)c1ccc2ccccc2n1 (configuration not stated) gave a cytotoxicity at 70.5 h of -11%.
In the case of COCC(O)CN(C)C(=O)NC1CCN(S(C)(=O)=O)CC1 (configuration not stated), the cytotoxicity at 70.5 h is reported as -7.83%.
Work on Cc1nccn1-c1ncccc1CNC(=O)c1ccc(O)nc1 yielded a cytotoxicity at 70.5 h of -10.6%.
In the case of Cc1ccccc1C(C)NC(=O)c1ccc(=O)n(C)c1 (configuration not stated), the cytotoxicity at 70.5 h is reported as -4.64%.
With Cc1nnc(CN(Cc2cccc(Cl)c2)C(C)C)o1 the cytotoxicity at 70.5 h was -16.1%.
CS(=O)(=O)Cc1cc(Cl)c2c(c1)OCCCO2 gave a cytotoxicity at 70.5 h of -3.38%.
CC(C)C(C)(C#N)NC(=O)Cn1cc(-c2ccccc2)cn1 (configuration not stated) gave a cytotoxicity at 70.5 h of -5.67%.
With Cc1noc(C)c1CNc1c(N2CCCC2)cccc1N1CCCC1 the cytotoxicity at 70.5 h was -5.49%.
In the case of CSCCC(NC(=O)c1ccc2ccccc2n1)C(=O)O (configuration not stated), the cytotoxicity at 70.5 h is reported as 4.89%.
CC(C)(C)n1cc(C(=O)O)c(-c2ccc(F)cc2F)n1 gave a cytotoxicity at 70.5 h of -18.2%.
CC(C)C(C)(C#N)NC(=O)Cn1cc(Cl)cn1 (configuration not stated) gave a cytotoxicity at 70.5 h of -6.35%.
Compound CCN(Cc1csc(CS(C)(=O)=O)n1)c1cccc(F)c1 has a cytotoxicity at 70.5 h of -7.29%.
Work on Cc1nccn1-c1ccc(CNC(=O)c2ccc([S+](C)[O-])cc2)cn1 (configuration not stated) yielded a cytotoxicity at 70.5 h of -3.4%.
Work on CS(=O)(=O)CCS(=O)(=O)Cc1cc(Cl)c2c(c1)OCCCO2 yielded a cytotoxicity at 70.5 h of -5.05%.
Compound CCc1c(C)nc2ccccc2c1N1CCC(C(=O)NC)CC1 has a cytotoxicity at 70.5 h of -5.91%.
CCOc1cc(CN(C)CC(=O)O)ccc1OC(F)F gave a cytotoxicity at 70.5 h of 6.63%.
Cc1sc(Br)cc1S(=O)(=O)NCCCN showed a cytotoxicity at 70.5 h of -8.71%.
